Series [1] deals with HIV-1 (H9IIIB virus) replication in MT4-GFP cells. Nature of the series: Antiviral Persistence assay. Conditions: for Fold shift IC50 72 h/24 h: ratio of IC50 72 h to IC50 24 h. On the procedure: HIV-1 replication was monitored using MT4-gag-GFP clone D3 (hereafter designate MT4-GFP), which are MT-4 cells modified to harbor a GFP reporter gene, the expression of which is dependent on the HIV-1 expressed proteins tat and rev. Productive infection of an MT4-GFP cell with HIV-1 results in GFP expression approximately 24 h post-infection. MT4-GFP cells were maintained at 37° C./5% CO2/90% relative humidity in RPMI 1640 supplemented with 10% fetal bovine serum, 100 U/mL penicillin/streptomycin, and 400 μg/mL G418 to maintain the reporter gene. For 72 hour time point persistence assay (72 h plate) and 24 hour time point control assay (24 h plate), MT4-GFP cells were washed and re-suspended in RPMI 1640 containing 10% normal human serum at either 1.6×10^5 or 2.4×10^5 cells/mL (10% NHS). Compound plates were prepared by dispensing compounds dissolved in DMSO into wells of 384 well cell culture plates ([…]) using an ECHO acoustic dispenser. Each compound was tested in a 10 point serial 3-fold dilution (typical final concentrations: 4.2 μM-0.21 nM). Controls included no inhibitor (DMSO only) and a combination of three antiviral agents (efavirenz, indinavir, and an integrase strand transfer inhibitor at final concentrations of 4 μM each). Cells were added (50 μL/well) to compound plates and were incubated at 37° C./5% CO2/90% relative humidity for 24 hours. The cells were washed with 5×40 uL of RPMI 1640 supplemented with 10% NHS and 100 U/mL penicillin/streptomycin. 72 h plate was return back to 37° C. incubator for additional 48 hour incubation. 40 uL of the cells from each well of the 24 h plate or the 72 h plate (after 48 hour incubation post wash) were transferred to a poly-D-lysine coated plate. The cells were then infected with H9IIIB virus at an approximate multiplicity of infection of 0.1 in the same incubation conditions.
Infected cells were quantified at ˜24 h post-infection, by counting the number of green cells in each well using an Acumen eX3 scanner. IC50s for the compounds in Table 4 were determined by non-linear 4-parameter curve fitting.
The antiviral persistence assay is meant to assess for the persistence of antiviral activity upon removal of the nucleoside. […] The publication AIDS Research and Therapy, 2009, 6:5, highlights the value of antiviral persistence.

Series [2] shares this test system. Nature of the series: Viking Assay: antiviral potency in a multiple round HIV-1 infection assay. Format: cell-based. The conditions noted are these: Human immunodeficiency virus 1, 10% normal human serum, inhibition of reproductive ratio R0 between ~48 h and ~72 h post-infection, read-out: Viking, IC50 (10% NHS). How it is done: Assessing Antiviral Potency in a Multiple Round HIV-1 Infection Assay.
Cells were then washed and re-suspended in either RPMI 1640 containing 10% or 50% normal human serum at 1.6×10^5 cells/mL (10% or 50% NHS conditions) or in 100% normal human serum at 2×10^5 cells/mL (100% NHS conditions).
The increase in the number of green cells over ˜24 h period gives the reproductive ratio, R0, which is typically 5-15 and has been shown experimentally to be in logarithmic phase (data not shown). Inhibition of R0 is calculated for each well, and IC50s determined by non-linear 4-parameter curve fitting.

In series [3] the target is T1, HIV-1 RT enzyme (Human immunodeficiency virus type 1 group M subtype B, UniProt P03366).
T1 construct: Full-length wild-type and 2 mutant RT proteins were expressed in Escherichia coli BL21(DE3) cells and purified; made in house; host or cells: Escherichia coli BL21(DE3)
Nature of the series: RT Polymerase Assay. Format: biochemical. On the procedure: Full-length wild-type and 2 mutant RT proteins were expressed in Escherichia coli BL21(DE3) cells and purified. Briefly, the heterodimeric nucleic acid substrate used in the HIV-1 RT polymerase reactions was generated by annealing biotinylated DNA primer to a 500 nucleotide RNA template. The HIV-1 RT enzyme (final concentration of […]) was combined with an inhibitor compound or DMSO (10% DMSO in the final reaction mixture) in assay buffer (62.5 mM Tris-HCl, pH 7.8, 1.25 mM dithiothreitol, 7.5 mM MgCl2, 100 mM KCl, 0.03% CHAPS, 0.125 mM EGTA). This mixture was pre-incubated for 30 minutes at room temperature in microtiter plates. The polymerization reaction was initiated by the addition of template/primer substrate (final concentration: 16.6 nM) and dNTPs (final concentration: 2 μM dCTP, dGTP, dATP, and 66.6 nM Ru-dUTP). After 90 min of incubation at 37° C., reactions were quenched by the addition of EDTA (25 mM). The resulting mixture was incubated for an additional 5 minutes at room temperature followed by transferring the solution (50 μL) to blocked avidin plate from Meso Scale Discovery (MSD). The mixtures were incubated at room temperature for 60 min prior to the quantification of the reaction product via an ECL 6000 imager instrument.

The mark [4] stands for this setting: Human immunodeficiency virus 1, 24 h, read-out: IC50 24 h (nM).
The mark [5] stands for this setting: Human immunodeficiency virus 1, read-out: IC50 72 h (nM).

Structures are written as SMILES.

Regarding `Cc1cn([C@H]2C[C@H](N=[N+]=[N-])[C@@H](CO)O2)c(=O)[nH]c1=O` [AZT, 3′-azido-3′-deoxythymidine, reference compound], the IC50 – broadly, the midpoint of a concentration-inhibition curve – in series [1] (setting [4]) is 37 nM; in series [1] (setting [5]) it was 4710 nM; in series [2], 37 nM. Besides, the “Fold shift IC50 72 h/24 h” value in series [1] is 127.

Take `C#C[C@]1(CO)O[C@@H](n2cc(C)c3c(N)ncnc32)C[C@@H]1O` [Example 3, (2R,3S,5R)-5-(4-amino-5-methyl-7H-pyrrolo[2,3-d]pyrimidin-7-yl)-2-ethynyl-2-(hydroxymethyl)tetrahydrofuran-3-ol]: the IC50 was determined as 470 nM in series [1] (setting [4]), 2500 nM in series [1] (setting [5]) and 485 nM in series [2]. The “Fold shift IC50 72 h/24 h” value in series [1] came to 5.3.

Consider `C#C[C@]1(CO)O[C@@H](n2cc(Br)c3c(N)ncnc32)C[C@@H]1O` [Example 5, (2R,3S,5R)-5-(4-amino-5-bromo-7H-pyrrolo[2,3-d]pyrimidin-7-yl)-2-ethynyl-2-(hydroxymethyl)tetrahydrofuran-3-ol], for which the IC50 in series [1] (setting [4]) was 22000 nM; in series [1] (setting [5]), greater than 42000 nM; in series [2] it was 209 nM. The “Fold shift IC50 72 h/24 h” value in series [1] is reported as greater than 1.9.

As to `C#C[C@]1(CO)O[C@@H](n2cc(Cl)c3c(N)ncnc32)C[C@@H]1O` [Example 6, (2R,3S,5R)-5-(4-amino-5-chloro-7H-pyrrolo[2,3-d]pyrimidin-7-yl)-2-ethynyl-2-(hydroxymethyl)tetrahydrofuran-3-ol], the IC50 in series [1] (setting [4]) stood at 99 nM; in series [1] (setting [5]), 970 nM; in series [2], 128 nM. The “Fold shift IC50 72 h/24 h” value in series [1] is on record as 9.8.

As for `C#C[C@]1(CO)O[C@@H](n2cc(I)c3c(N)ncnc32)C[C@@H]1O` [Example 7, (2R,3S,5R)-5-(4-amino-5-iodo-7H-pyrrolo[2,3-d]pyrimidin-7-yl)-2-ethynyl-2-(hydroxymethyl)tetrahydrofuran-3-ol], the figures for the IC50 in series [1] (setting [4]), in series [1] (setting [5]) and in series [2] were 17000 nM, 17000 nM and 1030 nM, respectively. In addition, the “Fold shift IC50 72 h/24 h” value in series [1] came to 1.

With `N#C[C@]1(CO)O[C@@H](n2ccc3c(N)ncnc32)C[C@@H]1O` [Example 10, (2R,3S,5R)-5-(4-amino-7H-pyrrolo[2,3-d]pyrimidin-7-yl)-3-hydroxy-2-(hydroxymethyl)tetrahydrofuran-2-carbonitrile], the IC50 is 170 nM in series [1] (setting [4]), 1800 nM in series [1] (setting [5]) and 128 nM in series [2]. Further, the “Fold shift IC50 72 h/24 h” value in series [1] worked out at 10.5.

Consider `C#C[C@]1(COP(=O)(O)OP(=O)(O)OP(=O)(O)O)O[C@@H](n2ccc3c(N)ncnc32)C[C@@H]1O` [Example 13, ammonium ((2R,3S,5R)-5-(4-amino-7H-pyrrolo[2,3-d]pyrimidin-7-yl)-2-ethynyl-3-hydroxytetrahydrofuran-2-yl)methyl triphosphate], for which inhibition in series [3] was half-maximal at 933 nM (IC50).

In turn, `C#C[C@]1(COP(=O)(O)OP(=O)(O)OP(=O)(O)O)O[C@@H](n2cc(F)c3c(N)ncnc32)C[C@@H]1O` [Example 14, ammonium ((2R,3S,5R)-5-(4-amino-5-fluoro-7H-pyrrolo[2,3-d]pyrimidin-7-yl)-2-ethynyl-3-hydroxytetrahydrofuran-2-yl)methyl triphosphate] registered an IC50 in series [3] of 210 nM.

Compound `C#C[C@]1(COP(=O)(O)OP(=O)(O)OP(=O)(O)O)O[C@@H](n2cc(C)c3c(N)ncnc32)C[C@@H]1O` [Example 15, ammonium (2R,3S,5R)-5-(4-amino-5-methyl-7H-pyrrolo[2,3-d]pyrimidin-7-yl)-2-ethynyl-3-hydroxytetrahydrofuran-2-yl)methyl triphosphate] displayed an IC50 in series [3] of 6240 nM.

With `C#C[C@]1(COP(=O)(O)OP(=O)(O)OP(=O)(O)O)O[C@@H](n2ccc3c(N)nc(Cl)nc32)C[C@@H]1O` [Example 16, bis-triethylammonium ((2R,3S,5R)-5-(4-amino-2-chloro-7H-pyrrolo[2,3-d]pyrimidin-7-yl)-2-ethynyl-3-hydroxytetrahydrofuran-2-yl)methyl triphosphate], in series [3], the IC50 was found to be 1820 nM.

As for `C#C[C@]1(COP(=O)(O)OP(=O)(O)OP(=O)(O)O)O[C@@H](n2cc(Cl)c3c(N)ncnc32)C[C@@H]1O` [Example 17, ammonium ((2R,3S,5R)-5-(4-amino-5-chloro-7H-pyrrolo[2,3-d]pyrimidin-7-yl)-2-ethynyl-3-hydroxytetrahydrofuran-2-yl)methyl triphosphate], inhibition in series [3] was half-maximal at 842 nM (IC50).

As to `N#C[C@]1(COP(=O)(O)OP(=O)(O)OP(=O)(O)O)O[C@@H](n2ccc3c(N)ncnc32)C[C@@H]1O` [Example 18, bis-triethylammonium ((2R,3S,5R)-5-(4-amino-7H-pyrrolo[2,3-d]pyrimidin-7-yl)-2-cyano-3-hydroxytetrahydrofuran-2-yl)methyl triphosphate], the IC50 in series [3] was 4150 nM.

In series [3], `C#C[C@]1(COP(=O)(O)OP(=O)(O)OP(=O)(O)O)O[C@@H](c2ccc3c(N)ncnn23)C[C@@H]1O` [Example 19, ammonium ((2R,3S,5R)-5-(4-aminopyrrolo[2,1-f][1,2,4]triazin-7-yl)-2-ethynyl-3-hydroxytetrahydrofuran-2-yl)methyl triphosphate] gave an IC50 of 3540 nM.

Compound `C#C[C@]1(COP(=O)(O)OP(=O)(O)OP(=O)(O)O)O[C@@H](c2cnn3c(N)ncnc23)C[C@@H]1O` [Example 20, ammonium ((2R,3S,5R)-5-(4-aminopyrazolo[1,5-a][1,3,5]triazin-8-yl)-2-ethynyl-3-hydroxytetrahydrofuran-2-yl)methyl triphosphate] came in with an IC50 in series [3] of 1290 nM.

In series [3], `C#C[C@]1(COP(=O)(O)OP(=O)(O)OP(=O)(O)O)O[C@@H](c2cnc3c(N)ncnn23)C[C@@H]1O` [Example 21, ammonium ((2R,3S,5R)-5-(4-aminoimidazo[2,1-f][1,2,4]triazin-7-yl)-2-ethynyl-3-hydroxytetrahydrofuran-2-yl)methyl triphosphate] registered an IC50 of 905 nM.

The values above are taken from US20180002366A1, “4'-SUBSTITUTED NUCLEOSIDE REVERSE TRANSCRIPTASE INHIBITORS” (MERCK SHARP & DOHME CORP., priority 2014, published 2018).
